# Publication PMC11725581, “Developing novel Lin28 inhibitors by computer aided drug design” (Cell Death Discovery, 2025)
# “Also recorded” adds a separate entry of the source.
# Key:
# HEC1B cells = assay: Cell proliferation (Incucyte), HEC1B; type: cell-based; conditions: Lin28a/Lin28b-negative
# Source text: (§1) To further evaluate whether the suppressive effects of Ln268 are specific to Lin28-positive cancer cells, we compared cell growth rates of DuNE (Lin28b-positive line) and Du145 (Lin28b-negative line), both of which are Lin28a-negative. DuNE has the same genomic background with Du145 except for the transduction of the SRRM4 gene. […] Furthermore, Ln268 had no impact on the cell growth of DuNE(KO) cells, in which the Lin28b gene was knocked out by CRISPR (Fig. 5C). […] We also tested several ovarian and endometrial cancer cell lines with different Lin28a and Lin28b expression profiles (Fig. 5E).
# TOV-112D cells = assay: Cell proliferation (Incucyte), TOV-112D; type: cell-based; conditions: Lin28a/Lin28b-positive
# Source text: as §1
# DuNE cells = assay: Colony formation assay, DuNE cells; type: cell-based; conditions: 14 days, vs vehicle (~50 colonies)
# Source text: (§2) CSCs have characteristic tumorigenic, self-renewal, and differentiation properties. The self-renewal ability is hijacked by CSCs that makes them both tumorigenic and capable of sustaining long-term tumor growth, which can be evaluated by 3D spheroid and colony formation assays. We established a DuNE spheroid model in which DuNE cells formed 3D spheroids in 96-well plates (Figure S3). By integrating this 3D culture with the Incucyte live-cell imaging system, we quantified the sizes of the spheroid growth over 0–6 days to generate a spheroid growth curve. Using this model system, we treated the DuNE spheroids with increasing doses (0–100 μM) of C1632, Ln15, and Ln268 for 0–6 days. […] In addition, classic colony formation assays were used to measure the stemness in the DuNE model. Colony formation counts, which were ~50 under vehicle treatment after 14 days, decreased by 22% in C1632-treated plates, and by 75% and 96% in the Ln15 and Ln268 treated plates, respectively (Fig. 4D).
# In the colony formation assays, cancer cells were seeded in 0.7% soft agar in a 6-well plate, with a 1% soft agar bottom base coating. Cells were allowed to grow for 14 days to form colonies. Colonies were stained with crystal violet and imaged by stitching 5X field images together to capture the entire well (Zeiss light microscope [Carl Zeiss]). Colony numbers were counted according to their diameters (100-300um or >300um). Three independent biological replicates were performed for all the assays.
# Du145 spheroids = assay: Du145 spheroid growth; type: cell-based; conditions: 0-192 h
# Source text: as §1
# (§3) For a spheroid generation, 1000 cells/well were seeded in 96-well ULA round-bottomed plates (Corning, Amsterdam) using a multichannel pipette. 3D multicellular spheroids were spontaneously generated after 24 h culture. Plates were incubated for 6 days at 37 °C, 5% CO2, and 95% humidity. DuNE and Du145 cells were cultured in DMEM with 10% FBS. Fully automated image analysis of tumor spheroids was carried out with the Incucyte® S3 Live-Cell Analysis System. The size and shape of multicellular spheroids were analyzed by using the Incucyte® Spheroid Analysis Software Module.
# [1] = system: Lin28a-positive IGROV-1 cells; assay: Cell proliferation (Incucyte), IGROV-1 cells; type: cell-based
# VOA1066 cells = assay: Cell proliferation (Incucyte), VOA1066; type: cell-based
# Source text: as §1
# [2] = system: DuNE(KO) cells (Lin28b gene knocked out by CRISPR); assay: Cell proliferation, DuNE(KO) cells; type: cell-based; conditions: Lin28b knockout, 72 h
# Source text: as §1
# Lin28b ZKD = target: T1, Lin28b ZKD (Homo sapiens, UniProt Q6ZN17); assay: EMSA, Lin28b ZKD:pre-let-7d complex formation; type: binding; conditions: 1 μM Lin28 ZKD, 10 nM IRDye800-labeled pre-let-7d probe
# T1 sequence (Q6ZN17 127-166 limits assumed): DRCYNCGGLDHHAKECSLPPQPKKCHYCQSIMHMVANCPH
# Protocol: We next validated the newly developed compounds using EMSA, a non-florescent-based assay to detect Lin28b ZKD:pre-let-7 complex formation. Similar to the FP assays, we first optimized the experimental conditions by titrating: (1) IRDye800-labeled pre-let-7d RNA probe, (2) Lin28b ZKD protein, and (3) non-labeled pre-let-7 probe as a competitor (Fig. 2C). For the validation experiments, 1 μM Lin28 ZKD and 10 nM of IRDye800-labeled pre-let-7d probe were mixed with each candidate compound. Compounds C1632 and Ln15 were used as control Lin28 inhibitors, respectively. […] Regardless, we use these two biochemical assays to shortlist the most promising compounds for further characterization. […] While our inhibitors directly target the Lin28 ZKD, it is unclear whether C1632 may bind to domains other than the ZKD or allosterically disrupt Lin28’s capacity to bind its RNA substrates.
# EMSA followed the standard protocols we published. An IRDye800CWN-labeled pre-Let-7d RNA probe (5’-IRD800CWN-[…]-3’) was purchased from IDT (Coralville, IA, USA). Lin28a or Lin28b proteins were incubated with 300 nM of probe in a standard 20 uL EMSA reaction in a reaction buffer containing 20 mM HEPES-NaOH, pH 7.4, 2 mM DTT, 3 mM MgCl2, 0.05% NP-40, protease inhibitors, and 0.1 ug poly[dI:dC]. After incubation for 30 min at 37 °C, reactions were loaded onto 4% non-denatured polyacrylamide gel in 0.5× TBE buffer. The RNA oligo bands were visualized by using the Li-Cor Odyssey 9120 Infrared Imaging System.
# [3] = system: Lin28b-mediated SG formation in DuNE cells; assay: Stress granule (SG) formation induced by ARS, confocal microscopy; type: cell-based
# Source text: To assess whether Lin28 inhibitors can inhibit SG formation in cancer cells, we induced SGs in DuNE cells using ARS. These cells were co-treated with either vehicle, C1632, Ln15, or Ln268 (Fig. 6F). As a positive control, RNase was also included since it is known to prevent Lin28-mediated SG formation. Under vehicle treatment condition, Lin28b was primarily localized within SGs; however, in the presence of Lin28 inhibitors, its subcellular distribution became more diffuse, extending beyond SGs. SG formation involves a dynamic process in which initial smaller granules coalesce to form larger, mature SGs through phase separation (Fig. 6F).
# Cells were fixed with 4% paraformaldehyde, treated in 0.25% Triton X-100 for 15 mins, and mounted with DAPI staining mount (Vector Labs; Burlingame, USA). Cell images were captured by confocal microscopy at 63X magnification (Zeiss; Germany).
# ES-2 cells = assay: Cell proliferation (Incucyte), ES-2; type: cell-based; conditions: Lin28a/Lin28b-negative
# Source text: as §1
# HEC50 cells = assay: Cell proliferation (Incucyte), HEC50; type: cell-based; conditions: Lin28a/Lin28b-negative
# Source text: as §1
# DuNE spheroids = assay: DuNE 3D spheroid growth (Incucyte); type: cell-based
# Source text: as §2, §3
compound,measurement,setting,value
O=c1[nH]c(Nc2ccc(F)cc2O)cs1 [Ln268],effect on growth of HEC1B cells,HEC1B cells,no or minimal impacts
same,effect on growth of TOV-112D cells,TOV-112D cells,suppressed the growth
same,decrease of colony formation counts,DuNE cells,96%
same,effect on Du145 spheroids,Du145 spheroids,no effect
same,"cell proliferation, IGROV-1",[1],strongly inhibited cell proliferation; also recorded: strong suppressive effects
same,effect on growth of VOA1066 cells,VOA1066 cells; Lin28a/Lin28b-positive,suppressed the growth
same,IC50,VOA1066 cells; cells express both Lin28a and Lin28b at relatively high levels,0.4 µM
same,effect on cell growth of DuNE(KO) cells,[2],no impact
same,inhibition of Lin28b ZKD:pre-let-7d complex formation (EMSA),Lin28b ZKD,capable of inhibiting Lin28:pre-let-7d complex formation in a dose-dependent manner
same,effect on aggregation of smaller granules (<20 pixels) into larger SGs (>50 pixels),[3],the most suppressive effect
same,effect on growth of ES-2 cells,ES-2 cells,no or minimal impacts
same,effect on growth of HEC50 cells,HEC50 cells,no or minimal impacts
same,effect on DuNE spheroid growth,DuNE spheroids,strongest potency among all 13 candidate compounds; also recorded: efficiently blocked DuNE spheroid growth in a time-dependent manner
same,potency improvement over parent compound Ln15 (spheroid growth),DuNE spheroids,~ 2 fold
same,potency relative to C1632 (spheroid growth),DuNE spheroids,approximately 10 fold
same,IC50,"DuNE spheroids; 0-100 μM, 0-6 days, read-out: concentration to achieve 50% spheroid growth inhibition",10 µM
